Test [1] addresses T1, PDPK1 (Homo sapiens, UniProt O15530).
T1 construct: purchased Eurofins DiscoverX (KINOMEscan scanEDGE service)
The conditions noted are these: 10 μM; cited from earlier work.

Test [2] concerns the target T2, PAK1 (Homo sapiens, UniProt Q13153).
T2 construct: purchased Eurofins DiscoverX (KINOMEscan scanEDGE service)
The following applies: 10 μM; cited from earlier work.

For test [3], the target named is T3, IKK-alpha (Homo sapiens, UniProt O15111).
T3 construct: purchased Eurofins DiscoverX
The following applies: 10 μM; cited from earlier work.

Test [4] addresses T4, SRC (Homo sapiens, UniProt P12931).
T4 construct: purchased Eurofins DiscoverX KINOMEscan scanEDGE
The conditions noted are these: 10 μM; cited from earlier work.

Test [5] concerns the target T5, AURKA (Homo sapiens, UniProt O14965).
T5 construct: purchased Eurofins DiscoverX
The conditions noted are these: 10 μM; cited from earlier work.

In test [6] the target is T6, MARK3 (Homo sapiens, UniProt P27448).
T6 construct: purchased Eurofins DiscoverX (KINOMEscan scanEDGE service)
The following applies: 10 μM; cited from earlier work.

Test [7] concerns the target T7, MKNK2 (Homo sapiens, UniProt Q9HBH9).
T7 construct: purchased Eurofins DiscoverX (KINOMEscan scanEDGE service)
The conditions noted are these: 10 μM; cited from earlier work.

Test [8] concerns the target T8, ACVR1B (Homo sapiens, UniProt P36896).
T8 construct: purchased Eurofins DiscoverX
The following applies: 10 μM; cited from earlier work.

Test [9] has as its target T9, JAK2(JH1domain-catalytic) (Homo sapiens, UniProt O60674).
T9 construct: JAK2(JH1domain-catalytic); purchased Eurofins DiscoverX
The conditions noted are these: 10 μM; cited from earlier work.

Test [10] concerns the target T10, IGF1R (Homo sapiens, UniProt P08069).
T10 construct: purchased Eurofins DiscoverX
The following applies: 10 μM; cited from earlier work.

Test [11] addresses T11, CSNK1G2 (Homo sapiens, UniProt P78368).
T11 construct: purchased Eurofins DiscoverX
The following applies: 10 μM; cited from earlier work.

The target of test [12] is T12, CDK2 (Homo sapiens, UniProt P24941).
T12 construct: purchased Eurofins DiscoverX
The following applies: 10 μM; cited from earlier work.

Test [13] has as its target T13, PDGFRB (Homo sapiens, UniProt P09619).
T13 construct: purchased Eurofins DiscoverX (KINOMEscan scanEDGE service)
The following applies: 10 μM; cited from earlier work.

For test [14], the target named is T14, CDK7 (Homo sapiens, UniProt P50613).
T14 construct: purchased Eurofins DiscoverX
The following applies: 10 μM; cited from earlier work.

For test [15], the target named is T15, EGFR (Homo sapiens, UniProt P00533).
T15 construct: purchased Eurofins DiscoverX
The conditions noted are these: 10 μM; cited from earlier work.

Test [16] has as its target T16, ULK2 (Homo sapiens, UniProt Q8IYT8).
T16 construct: purchased Eurofins DiscoverX KINOMEscan scanEDGE
The following applies: 10 μM; cited from earlier work.

For test [17], the target named is T17, VEGFR2 (Homo sapiens, UniProt P35968).
T17 construct: purchased Eurofins DiscoverX KINOMEscan scanEDGE
The conditions noted are these: 10 μM; cited from earlier work.

Test [18] addresses T18, CDK3 (Homo sapiens, UniProt Q00526).
T18 construct: purchased Eurofins DiscoverX
The following applies: 10 μM; cited from earlier work.

In test [19] the target is T19, PLK1 (Homo sapiens, UniProt P53350).
T19 construct: purchased Eurofins DiscoverX KINOMEscan scanEDGE
The following applies: 10 μM; cited from earlier work.

Test [20] addresses T20, CDK9 (Homo sapiens, UniProt P50750).
T20 construct: purchased Eurofins DiscoverX
The following applies: 10 μM; cited from earlier work.

The target of test [21] is T21, TIE2 (Homo sapiens, UniProt Q02763).
T21 construct: purchased Eurofins DiscoverX KINOMEscan scanEDGE
The following applies: 10 μM; cited from earlier work.

Test [22] has as its target T22, JNK1 (Homo sapiens, UniProt P45983).
T22 construct: purchased Eurofins DiscoverX
The conditions noted are these: 10 μM; cited from earlier work.

In test [23] the target is T23, PRKCE (Homo sapiens, UniProt Q02156).
T23 construct: purchased Eurofins DiscoverX KINOMEscan scanEDGE
The conditions noted are these: 10 μM; cited from earlier work.

The target of test [24] is T24, RAF1 (Homo sapiens, UniProt P04049).
T24 construct: purchased Eurofins DiscoverX KINOMEscan scanEDGE
The following applies: 10 μM; cited from earlier work.

Test [25] deals with T25, RET (Homo sapiens, UniProt P07949).
T25 construct: purchased Eurofins DiscoverX KINOMEscan scanEDGE
Briefly: KINOMEscan scanEDGE. The following applies: read-out: Percent Control. It counts as binding. Put shortly:
(§1)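 Test compound is screened at 10 μM only, no dose-response, across 97 kinases. Each value gives remaining % activity relative to DMSO; lower indicates higher affinity.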

Test [26] concerns the target T9, JAK2(JH1domain-catalytic). The test is described as follows: KINOMEscan scanEDGE. The format is binding. The following applies: read-out: Percent Control. Put shortly:
as §1

In test [27] the target is T2, PAK1. Briefly: KINOMEscan scanEDGE. It counts as binding. The following applies: read-out: Percent Control. Put shortly: as §1
Test [28] addresses T26, TRKA (Homo sapiens, UniProt P04629).
T26 construct: purchased Eurofins DiscoverX KINOMEscan scanEDGE
Briefly: KINOMEscan scanEDGE. It counts as binding. The conditions noted are these: read-out: Percent Control. Put shortly: as §1

Test [29] concerns the target T7, MKNK2. The test is described as follows: KINOMEscan scanEDGE. The following applies: read-out: Percent Control. The format is binding. Put shortly: as §1
The target in test [30] is T27, BRAF (Homo sapiens, UniProt P15056).
T27 construct: purchased Eurofins DiscoverX
Briefly: KINOMEscan scanEDGE. It counts as binding. The following applies: read-out: Percent Control. Summed up: as §1

Test [31] addresses T6, MARK3. Briefly: KINOMEscan scanEDGE. The format is binding. The conditions noted are these: read-out: Percent Control. Put shortly: as §1
In test [32] the target is T10, IGF1R. The test is described as follows: KINOMEscan scanEDGE. The format is binding. The following applies: read-out: Percent Control. Put shortly:
as §1

The target of test [33] is T28, LKB1 (Homo sapiens, UniProt Q15831).
T28 construct: purchased Eurofins DiscoverX (KINOMEscan scanEDGE service)
Briefly: KINOMEscan scanEDGE. It counts as binding. The following applies: read-out: Percent Control. Put shortly:
as §1

The subject of test [34] is cortical neurons. The test is described as follows: Spinogenesis. The following applies: cortical neurons (DIV15), 10 μM, 24 h. The format is cell-based, rat. The procedure:
(A) Representative images of cortical neurons (DIV15) treated with compounds (10 μM) for 24 h. (B) Quantification of dendritic spine density (n=29-55 neurons per treatment condition). Data are represented as mean±SEM. *p<0.05, **p<0.01, ***p<0.001, ****p<0.0001, as compared to the vehicle control following a one-way ANOVA with Dunnett's post hoc test. VEH=vehicle (0.2% DMSO).
Spinogenesis. Spinogenesis experiments were performed as previously described with the exception that cells were treated at DIV14 and fixed 24 h after treatment on DIV15. The images were taken on a Nikon HCA confocal microscope with a 100×/NA 1.45 oil objective. Experiments were performed in duplicate with plates prepared using neurons obtained from independent pregnant dams. Images were analyzed by an experimenter blinded to the treatment conditions.

The structures appear in SMILES notation.

T7 sequence (Q9HBH9 whole entry): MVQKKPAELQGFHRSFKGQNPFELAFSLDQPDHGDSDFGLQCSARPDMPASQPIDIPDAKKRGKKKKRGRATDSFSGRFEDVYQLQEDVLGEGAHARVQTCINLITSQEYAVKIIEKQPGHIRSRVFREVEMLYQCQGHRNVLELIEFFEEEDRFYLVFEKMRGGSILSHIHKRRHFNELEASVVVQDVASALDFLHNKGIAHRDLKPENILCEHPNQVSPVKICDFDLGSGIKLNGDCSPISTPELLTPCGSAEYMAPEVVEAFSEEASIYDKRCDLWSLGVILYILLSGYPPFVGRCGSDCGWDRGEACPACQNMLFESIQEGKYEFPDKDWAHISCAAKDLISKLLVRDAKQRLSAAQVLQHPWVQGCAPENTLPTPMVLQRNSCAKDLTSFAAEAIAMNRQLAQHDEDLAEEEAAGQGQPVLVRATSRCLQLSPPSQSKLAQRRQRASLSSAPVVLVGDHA
T2 sequence (Q13153 whole entry): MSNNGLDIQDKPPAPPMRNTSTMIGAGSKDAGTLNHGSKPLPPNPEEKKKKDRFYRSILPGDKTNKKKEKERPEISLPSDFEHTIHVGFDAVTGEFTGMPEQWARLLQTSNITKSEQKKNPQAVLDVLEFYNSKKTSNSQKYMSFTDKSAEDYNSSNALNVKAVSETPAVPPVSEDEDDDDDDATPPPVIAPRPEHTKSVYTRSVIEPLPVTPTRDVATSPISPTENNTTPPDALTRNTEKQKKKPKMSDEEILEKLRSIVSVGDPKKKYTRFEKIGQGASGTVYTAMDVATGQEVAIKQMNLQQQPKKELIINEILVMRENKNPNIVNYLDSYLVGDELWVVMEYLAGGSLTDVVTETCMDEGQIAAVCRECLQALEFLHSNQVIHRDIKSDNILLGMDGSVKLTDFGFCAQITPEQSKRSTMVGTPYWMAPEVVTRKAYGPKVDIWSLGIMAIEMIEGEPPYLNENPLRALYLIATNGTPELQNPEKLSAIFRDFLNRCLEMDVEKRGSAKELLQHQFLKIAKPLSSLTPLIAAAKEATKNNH
T6 sequence (P27448 whole entry): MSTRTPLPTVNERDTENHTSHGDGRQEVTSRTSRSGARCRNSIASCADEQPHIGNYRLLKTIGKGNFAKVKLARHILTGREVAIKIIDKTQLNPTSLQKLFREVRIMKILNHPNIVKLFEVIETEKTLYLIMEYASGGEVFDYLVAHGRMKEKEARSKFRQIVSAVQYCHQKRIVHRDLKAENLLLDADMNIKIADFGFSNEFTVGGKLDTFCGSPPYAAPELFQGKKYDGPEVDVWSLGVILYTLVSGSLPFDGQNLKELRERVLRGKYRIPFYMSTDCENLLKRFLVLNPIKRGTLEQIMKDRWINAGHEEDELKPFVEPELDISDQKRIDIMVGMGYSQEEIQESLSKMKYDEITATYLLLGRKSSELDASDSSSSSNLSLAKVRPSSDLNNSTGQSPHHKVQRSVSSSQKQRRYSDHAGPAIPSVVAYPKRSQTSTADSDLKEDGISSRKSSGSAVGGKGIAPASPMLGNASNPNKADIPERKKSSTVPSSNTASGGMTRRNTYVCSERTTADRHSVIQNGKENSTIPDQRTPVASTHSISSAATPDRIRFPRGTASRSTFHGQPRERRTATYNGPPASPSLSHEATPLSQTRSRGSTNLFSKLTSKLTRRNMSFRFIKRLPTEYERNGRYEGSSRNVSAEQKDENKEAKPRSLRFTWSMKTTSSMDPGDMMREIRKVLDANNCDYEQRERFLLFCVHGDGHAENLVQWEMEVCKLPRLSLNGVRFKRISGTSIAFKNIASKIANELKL
T10 sequence (P08069 31-1367): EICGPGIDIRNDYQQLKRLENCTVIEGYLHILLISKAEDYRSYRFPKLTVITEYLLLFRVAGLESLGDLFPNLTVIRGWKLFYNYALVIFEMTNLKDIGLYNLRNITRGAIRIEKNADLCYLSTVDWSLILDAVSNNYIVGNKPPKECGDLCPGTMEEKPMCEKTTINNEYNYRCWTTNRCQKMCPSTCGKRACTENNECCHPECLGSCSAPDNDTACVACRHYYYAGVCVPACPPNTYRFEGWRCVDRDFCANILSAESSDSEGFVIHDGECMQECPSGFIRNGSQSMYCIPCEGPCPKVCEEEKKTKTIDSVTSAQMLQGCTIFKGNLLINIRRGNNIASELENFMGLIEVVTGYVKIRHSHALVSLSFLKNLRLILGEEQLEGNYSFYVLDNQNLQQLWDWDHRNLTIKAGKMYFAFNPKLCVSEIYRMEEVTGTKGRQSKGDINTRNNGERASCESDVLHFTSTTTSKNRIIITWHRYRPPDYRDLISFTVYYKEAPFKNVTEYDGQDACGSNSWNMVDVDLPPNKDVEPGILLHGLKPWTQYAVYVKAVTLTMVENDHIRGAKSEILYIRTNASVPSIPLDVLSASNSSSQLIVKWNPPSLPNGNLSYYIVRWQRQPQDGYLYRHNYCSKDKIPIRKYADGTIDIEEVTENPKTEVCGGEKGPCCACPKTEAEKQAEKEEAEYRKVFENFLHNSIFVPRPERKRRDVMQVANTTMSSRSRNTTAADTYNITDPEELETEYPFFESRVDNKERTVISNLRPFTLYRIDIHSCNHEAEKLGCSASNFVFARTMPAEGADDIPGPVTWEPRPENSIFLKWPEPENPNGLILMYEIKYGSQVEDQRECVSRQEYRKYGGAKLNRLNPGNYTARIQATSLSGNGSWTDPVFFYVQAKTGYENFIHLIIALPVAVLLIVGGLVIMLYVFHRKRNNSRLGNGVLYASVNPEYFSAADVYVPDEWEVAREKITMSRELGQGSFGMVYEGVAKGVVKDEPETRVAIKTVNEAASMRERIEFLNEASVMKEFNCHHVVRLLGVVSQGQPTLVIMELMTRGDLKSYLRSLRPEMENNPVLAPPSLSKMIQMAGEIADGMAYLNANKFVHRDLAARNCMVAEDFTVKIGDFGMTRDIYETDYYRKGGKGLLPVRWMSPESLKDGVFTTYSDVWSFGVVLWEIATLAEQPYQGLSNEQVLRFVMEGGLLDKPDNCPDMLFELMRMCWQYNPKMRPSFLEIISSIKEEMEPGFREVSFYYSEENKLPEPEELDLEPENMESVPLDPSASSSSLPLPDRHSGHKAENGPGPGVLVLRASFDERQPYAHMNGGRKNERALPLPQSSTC
T9 sequence (O60674 849-1124 limits assumed): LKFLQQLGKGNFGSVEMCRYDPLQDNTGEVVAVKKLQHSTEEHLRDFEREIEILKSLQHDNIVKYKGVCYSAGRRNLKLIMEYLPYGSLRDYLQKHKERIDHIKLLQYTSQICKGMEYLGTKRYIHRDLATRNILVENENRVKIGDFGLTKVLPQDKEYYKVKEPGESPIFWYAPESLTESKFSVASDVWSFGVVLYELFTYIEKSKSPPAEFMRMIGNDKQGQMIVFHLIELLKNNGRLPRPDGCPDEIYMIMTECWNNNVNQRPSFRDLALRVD
T18 sequence (Q00526 whole entry): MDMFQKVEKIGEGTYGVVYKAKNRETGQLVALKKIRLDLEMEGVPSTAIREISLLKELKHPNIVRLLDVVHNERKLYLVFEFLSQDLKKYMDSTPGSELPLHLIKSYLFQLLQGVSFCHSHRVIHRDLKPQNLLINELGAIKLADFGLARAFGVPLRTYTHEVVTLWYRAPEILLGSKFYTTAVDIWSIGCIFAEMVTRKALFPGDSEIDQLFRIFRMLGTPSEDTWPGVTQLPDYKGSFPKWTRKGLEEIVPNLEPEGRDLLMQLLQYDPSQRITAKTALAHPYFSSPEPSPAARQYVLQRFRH
T21 sequence (Q02763 23-1124): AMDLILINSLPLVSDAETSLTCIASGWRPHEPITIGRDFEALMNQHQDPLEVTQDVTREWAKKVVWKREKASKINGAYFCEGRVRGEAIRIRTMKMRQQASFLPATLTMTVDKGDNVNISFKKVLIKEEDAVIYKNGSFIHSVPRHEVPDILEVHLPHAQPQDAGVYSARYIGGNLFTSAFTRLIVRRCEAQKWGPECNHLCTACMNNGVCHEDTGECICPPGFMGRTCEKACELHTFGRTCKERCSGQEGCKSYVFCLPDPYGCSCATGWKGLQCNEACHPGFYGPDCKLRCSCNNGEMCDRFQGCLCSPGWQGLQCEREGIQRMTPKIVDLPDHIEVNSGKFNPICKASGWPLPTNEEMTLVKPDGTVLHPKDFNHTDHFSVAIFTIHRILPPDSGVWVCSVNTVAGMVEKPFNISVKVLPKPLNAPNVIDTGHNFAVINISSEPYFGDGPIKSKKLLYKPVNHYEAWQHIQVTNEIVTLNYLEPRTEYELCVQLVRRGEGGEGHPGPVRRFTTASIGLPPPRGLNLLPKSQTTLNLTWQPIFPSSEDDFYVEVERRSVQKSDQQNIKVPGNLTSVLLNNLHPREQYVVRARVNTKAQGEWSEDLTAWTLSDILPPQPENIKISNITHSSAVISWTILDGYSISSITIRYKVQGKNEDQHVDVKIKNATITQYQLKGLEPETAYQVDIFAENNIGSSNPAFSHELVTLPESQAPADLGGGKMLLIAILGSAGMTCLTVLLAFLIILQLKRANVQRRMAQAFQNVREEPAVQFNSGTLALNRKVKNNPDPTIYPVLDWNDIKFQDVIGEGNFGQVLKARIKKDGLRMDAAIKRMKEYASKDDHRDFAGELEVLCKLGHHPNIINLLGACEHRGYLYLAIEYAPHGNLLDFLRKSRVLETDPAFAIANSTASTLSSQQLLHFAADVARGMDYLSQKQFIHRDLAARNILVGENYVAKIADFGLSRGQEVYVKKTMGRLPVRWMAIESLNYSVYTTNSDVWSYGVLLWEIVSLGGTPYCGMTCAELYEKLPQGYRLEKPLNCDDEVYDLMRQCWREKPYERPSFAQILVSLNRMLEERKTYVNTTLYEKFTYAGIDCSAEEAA

With `COc1ccc2c(c1)[nH]c1c(C)nccc12` [Harmine, harmine], the “Percent Control” value was 100% in test [1]; 73% in test [2]; 81% in test [3]; 90% in test [4]; 85% in test [5]; 91% in [6]. Besides, the “Percent Control” value was 22% in test [7]; 91% in test [8]; 92% in test [9]; 100% in test [10]; 19% in test [11]; 98% in test [12]. The “Percent Control” value in test [13] is recorded as 84%; in test [14], 21%; in [15] it was 96%; in [16], 89%; in [17], 78%; in [18], 100%. In addition, the “Percent Control” value in test [19] is 93%; in [20] it was 67%; in test [21], 94%; in [22], 41%; in test [23], 91%; in [24], 89%.

For `COc1ccc2c3ccnc(C)c3n(CCN(C)C)c2c1.O=C(O)/C=C/C(=O)O` [HTW_A_8 fumarate, 2-(7-methoxy-1-methyl-9H-pyrido[3,4-b]indol-9-yl)-N,N-dimethylethan-1-amine Fumarate Salt (2:3)], the remaining binding at 10 µM in test [25] worked out at 95%; in test [26], 100%; in test [27] it was 100%; in [28], 93%; in [29] it was 100%; in [30] it was 100%. In addition, the remaining binding at 10 µM in test [31] was determined as 100%; in test [32], 85%; in test [33], 71%. Moreover, the dendritic spine density result in test [34] is listed as “significantly increases dendritic spine density”.

These data come from patent US20260284018A1, “DUAL INHIBITORS OF DYRK1A AND 5-HT2 FOR TREATING A BRAIN DISORDER” (THE REGENTS OF THE UNIVERSITY OF CALIFORNIA, priority 2023, published 2026).
